According to the NIST ThermoML archive (doi:10.1016/j.jct.2006.09.008):

Experiment: molar heat capacity at constant pressure; mn = molality of the nth substance listed, in mol/kg
Conditions: 350 kPa, Liquid

O=[N+]([O-])[O-].O=[N+]([O-])[O-].[Mg+2] [magnesium nitrate] + O
molar heat capacity at constant pressure [J/K/mol]
Conditions | m1 = 0.0228 | m1 = 0.0567 | m1 = 0.1086 | m1 = 0.2145 | m1 = 0.3197 | m1 = 0.4749 | m1 = 0.6211 | m1 = 0.811 | m1 = 1.014
278.15 K | 75.58 | 75.4 | 75.14 | 74.65 | 74.24 | 73.72 | 73.31 | 72.9 | 72.59
283.15 K | 75.43 | 75.26 | 75.04 | 74.61 | 74.25 | 73.79 | 73.43 | 73.07 | 72.79
288.15 K | 75.33 | 75.17 | 74.98 | 74.6 | 74.28 | 73.86 | 73.54 | 73.22 | 72.97
293.15 K | 75.26 | 75.12 | 74.94 | 74.6 | 74.31 | 73.94 | 73.65 | 73.35 | 73.12
298.15 K | 75.22 | 75.09 | 74.92 | 74.62 | 74.35 | 74.01 | 73.74 | 73.47 | 73.26
303.15 K | 75.19 | 75.07 | 74.92 | 74.64 | 74.39 | 74.07 | 73.83 | 73.58 | 73.38
308.15 K | 75.18 | 75.07 | 74.92 | 74.66 | 74.43 | 74.13 | 73.91 | 73.67 | 73.48
313.15 K | 75.18 | 75.07 | 74.94 | 74.69 | 74.47 | 74.19 | 73.98 | 73.75 | 73.58
318.15 K | 75.2 | 75.09 | 74.96 | 74.72 | 74.52 | 74.25 | 74.04 | 73.83 | 73.66
323.15 K | 75.22 | 75.12 | 74.99 | 74.76 | 74.56 | 74.3 | 74.11 | 73.9 | 73.74
328.15 K | 75.25 | 75.15 | 75.03 | 74.81 | 74.61 | 74.36 | 74.17 | 73.97 | 73.82
333.15 K | 75.29 | 75.19 | 75.07 | 74.85 | 74.66 | 74.42 | 74.23 | 74.03 | 73.89
338.15 K | 75.34 | 75.24 | 75.12 | 74.91 | 74.72 | 74.48 | 74.3 | 74.1 | 73.95
343.15 K | 75.39 | 75.3 | 75.18 | 74.96 | 74.78 | 74.54 | 74.36 | 74.16 | 74.02
348.15 K | 75.46 | 75.36 | 75.24 | 75.02 | 74.84 | 74.6 | 74.42 | 74.22 | 74.08
353.15 K | 75.53 | 75.43 | 75.31 | 75.09 | 74.9 | 74.66 | 74.48 | 74.28 | 74.14
358.15 K | 75.61 | 75.51 | 75.38 | 75.16 | 74.97 | 74.73 | 74.55 | 74.35 | 74.2
363.15 K | 75.69 | 75.59 | 75.46 | 75.24 | 75.04 | 74.8 | 74.61 | 74.42 | 74.27
368.15 K | 75.78 | 75.68 | 75.55 | 75.32 | 75.12 | 74.87 | 74.68 | 74.48 | 74.33
373.15 K | 75.88 | 75.78 | 75.64 | 75.4 | 75.21 | 74.95 | 74.76 | 74.55 | 74.4
378.15 K | 75.99 | 75.88 | 75.74 | 75.5 | 75.32 | 75.05 | 74.83 | 74.63 | 74.47
383.15 K | 76.11 | 76 | 75.85 | 75.6 | 75.42 | 75.14 | 74.92 | 74.71 | 74.55
388.15 K | 76.24 | 76.12 | 75.97 | 75.7 | 75.52 | 75.24 | 75.03 | 74.79 | 74.63
393.15 K | 76.38 | 76.25 | 76.09 | 75.82 | 75.63 | 75.34 | 75.15 | 74.89 | 74.73
